Data as given in patent publication US8222202B2 (priority 2006, dated 2012).
Like-named read-outs stand apart in the source and are kept apart here. Positions of bridges follow the written chain, without caps; N, C: chain ends. Non-standard residues stand in square brackets, D forms with d. Residues, ends and D or L forms follow the SMILES beside them. *: point of attachment. Ala(4-thiazolyl) = N[C@@H](Cc1cscn1)C(=O)O; Dab(iPr) = CC(C)NCC[C@H](N)C(=O)O; 2Pal = N[C@@H](Cc1ccccn1)C(=O)O; 3Pal = N[C@@H](Cc1cccnc1)C(=O)O; 4Pal = N[C@@H](Cc1ccncc1)C(=O)O; 2Thi = N[C@@H](Cc1cccs1)C(=O)O; Aad = N[C@@H](CCCC(=O)O)C(=O)O; NHCH(CH2OH)2 = OCC(CO)N*; Orn = NCCC[C@H](N)C(=O)O; Dab = NCC[C@H](N)C(=O)O; NHCH2CH2OH = OCCN*; NHiBu = CC(C)CN*; X4 = OCCOCCN*; NHOH = ON*

Experiments:
hV1a receptor = target: T1, hV1a receptor (Homo sapiens, UniProt P37288); experiment: hV1a receptor transcriptional reporter (luciferase) agonist assay; assay type: cell-based
T1 construct: expressed in transfected cells; host or cells: HEK-293
Protocol: (§1) Agonist activity of compounds on the hV1a receptor was determined in a transcriptional reporter assay by transiently transfecting a hV1a receptor expression DNA into HEK-293 cells in concert with a reporter DNA containing intracellular calcium responsive promoter elements regulating expression of firefly luciferase. See Boss, V., Talpade, D. J., Murphy, T. J. J. Biol. Chem. 1996, May 3; 271(18), 10429-10432 for further guidance on this assay. […] To determine selectivity, compounds were tested in luciferase-based transcriptional reporter assays expressing the human oxytocin (hOT) receptor. Assays for other receptors (hV2, hV1b, rat V1a and rat V2) were also conducted.
(§2) The EC50 value given is the geometric mean expressed in nanomol/L (nM). Selectivity values are given as EC50 ratios.

[1] = target: T2, human oxytocin (hOT) receptor (Homo sapiens, UniProt P30559); experiment: luciferase-based transcriptional reporter assay, selectivity hOT versus hV1a; assay type: cell-based
T2 construct: expressed in transfected cells
T2 sequence (P30559 1-389): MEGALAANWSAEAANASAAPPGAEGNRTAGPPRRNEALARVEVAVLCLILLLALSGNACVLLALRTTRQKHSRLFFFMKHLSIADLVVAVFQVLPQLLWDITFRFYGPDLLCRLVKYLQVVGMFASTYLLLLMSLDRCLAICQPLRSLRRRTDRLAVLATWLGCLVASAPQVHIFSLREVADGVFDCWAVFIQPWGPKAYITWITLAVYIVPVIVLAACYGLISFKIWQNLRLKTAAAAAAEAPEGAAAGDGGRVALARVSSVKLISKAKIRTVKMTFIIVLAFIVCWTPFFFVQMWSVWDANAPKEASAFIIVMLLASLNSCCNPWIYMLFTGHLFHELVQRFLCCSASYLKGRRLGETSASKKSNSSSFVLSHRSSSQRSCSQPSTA
Protocol: as §1, §2

[2] = HEK-293 cells transiently transfected with hV1a receptor, 5 hours exposure, geometric mean, read-out: EC50 hV1a receptor
[3] = class symbol, agonist efficacy at hOT receptor compared to AVP

T1 sequence (P37288 whole entry): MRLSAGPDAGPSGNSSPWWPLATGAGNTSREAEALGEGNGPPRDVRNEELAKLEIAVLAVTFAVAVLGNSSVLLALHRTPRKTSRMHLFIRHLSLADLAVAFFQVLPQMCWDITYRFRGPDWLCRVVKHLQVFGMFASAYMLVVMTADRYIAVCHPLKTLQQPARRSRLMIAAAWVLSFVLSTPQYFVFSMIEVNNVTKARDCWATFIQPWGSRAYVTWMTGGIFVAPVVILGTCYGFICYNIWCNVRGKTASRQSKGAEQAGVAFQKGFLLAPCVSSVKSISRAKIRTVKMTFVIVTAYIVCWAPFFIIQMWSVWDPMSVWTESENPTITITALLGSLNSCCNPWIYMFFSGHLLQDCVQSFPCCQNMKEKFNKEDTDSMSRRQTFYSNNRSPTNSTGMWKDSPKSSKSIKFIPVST

Structure (SMILES)	EC50 (hV1a receptor; [2]) [nM]	EC50 (hV1a receptor) [nM]	selectivity hOT/hV1a [1]	selectivity hOT/hV1a ([1]; EC50 ratio)	selectivity hOT/hV1a [1, 3]
CC[C@H](C)[C@@H]1NC(=O)[C@H](Cc2ccccc2)NC(=O)[C@@H](N)CSSC[C@@H](C(=O)N2CCC[C@H]2C(=O)N[C@@H](CCCN)C(=O)NCC(N)=O)NC(=O)[C@H](CC(N)=O)NC(=O)[C@H](CC(=O)N(C)C)NC1=O [Compound 7] (H-CFID(NMe2)NCP[Orn]G-NH2; disulfide 1-6)	–	2.84	+ (key: +: selective hV1a receptor agonist; EC50 hOT/hV1a ratio not determined due to very low agonist efficacy (<30% compared to AVP) at the hOT receptor)	–	–
CC[C@H](C)[C@@H]1NC(=O)[C@H](Cc2ccccc2)NC(=O)[C@@H](N)CSSC[C@@H](C(=O)N2CCC[C@H]2C(=O)N[C@@H](CCN)C(=O)NCC(N)=O)NC(=O)[C@H](CC(N)=O)NC(=O)[C@H](CCC(N)=O)NC1=O [Compound 8] (H-CFIQNCP[Dab]G-NH2; disulfide 1-6; N-terminus and C-terminus assumed)	0.5	–	–	11	–
CC[C@H](C)[C@@H]1NC(=O)[C@H](Cc2ccncc2)NC(=O)[C@@H](N)CSSC[C@@H](C(=O)N2CCC[C@H]2C(=O)N[C@@H](CCN)C(=O)NCC(N)=O)NC(=O)[C@H](CC(N)=O)NC(=O)[C@H](CCC(N)=O)NC1=O [Compound 12] (H-C[4Pal]IQNCP[Dab]G-NH2; disulfide 1-6)	–	25	+ (key: +: selective hV1a receptor agonist; EC50 hOT/hV1a ratio not determined due to very low agonist efficacy (<30% compared to AVP) at the hOT receptor)	–	–
CC[C@H](C)[C@@H]1NC(=O)[C@H](Cc2cscn2)NC(=O)[C@@H](N)CSSC[C@@H](C(=O)N2CCC[C@H]2C(=O)N[C@@H](CCN)C(=O)NCC(N)=O)NC(=O)[C@H](CC(N)=O)NC(=O)[C@H](CCC(N)=O)NC1=O [Compound 13] (H-C[Ala(4-thiazolyl)]IQNCP[Dab]G-NH2; disulfide 1-6; N-terminus and C-terminus assumed)	18.8	–	–	–	+ (selective hV1a receptor agonist; EC50 hOT/hV1a ratio not determined due to very low agonist efficacy (<30% compared to AVP) at the hOT receptor)
CC[C@H](C)[C@@H]1NC(=O)[C@H](Cc2cccs2)NC(=O)[C@@H](N)CSSC[C@@H](C(=O)N2CCC[C@H]2C(=O)N[C@@H](CCN)C(=O)NCC(N)=O)NC(=O)[C@H](CC(N)=O)NC(=O)[C@H](CCC(N)=O)NC1=O [Compound 14] (H-C[2Thi]IQNCP[Dab]G-NH2; disulfide 1-6)	0.54	–	–	75	–
CC[C@H](C)[C@@H]1NC(=O)[C@H](Cc2ccccn2)NC(=O)[C@@H](N)CSSC[C@@H](C(=O)N2CCC[C@H]2C(=O)N[C@@H](CCN)C(=O)NCC(N)=O)NC(=O)[C@H](CC(N)=O)NC(=O)[C@H](CCC(N)=O)NC1=O [Compound 17] (H-C[2Pal]IQNCP[Dab]G-NH2; disulfide 1-6)	–	30.3	+ (key: +: selective hV1a receptor agonist; EC50 hOT/hV1a ratio not determined due to very low agonist efficacy (<30% compared to AVP) at the hOT receptor)	–	–
CC[C@H](C)[C@@H]1NC(=O)[C@H](Cc2cccnc2)NC(=O)[C@@H](N)CSSC[C@@H](C(=O)N2CCC[C@H]2C(=O)N[C@@H](CCN)C(=O)NCC(N)=O)NC(=O)[C@H](CC(N)=O)NC(=O)[C@H](CCC(N)=O)NC1=O [Compound 18] (H-C[3Pal]IQNCP[Dab]G-NH2; disulfide 1-6; N-terminus and C-terminus assumed)	29.9	–	–	–	+ (selective hV1a receptor agonist; EC50 hOT/hV1a ratio not determined due to very low agonist efficacy (<30% compared to AVP) at the hOT receptor)
CCNC(=O)CC[C@@H]1NC(=O)[C@H]([C@@H](C)CC)NC(=O)[C@H](Cc2ccccc2)NC(=O)[C@@H](N)CSSC[C@@H](C(=O)N2CCC[C@H]2C(=O)N[C@@H](CCCN)C(=O)NCC(N)=O)NC(=O)[C@H](CC(N)=O)NC1=O [Compound 20] (H-CFIE(NHEt)NCP[Orn]G-NH2; disulfide 1-6; N-terminus and C-terminus assumed)	39.3	–	–	–	+ (selective hV1a receptor agonist; EC50 hOT/hV1a ratio not determined due to very low agonist efficacy (<30% compared to AVP) at the hOT receptor)
CC[C@H](C)[C@@H]1NC(=O)[C@H](Cc2ccccc2)NC(=O)[C@@H](N)CSSC[C@@H](C(=O)N2CCC[C@H]2C(=O)N[C@@H](CCCN)C(=O)NCC(N)=O)NC(=O)[C@H](CC(N)=O)NC(=O)[C@H](CCC(=O)NCC(C)C)NC1=O [Compound 21] (H-CFIE(NHiBu)NCP[Orn]G-NH2; disulfide 1-6)	20.7	–	–	–	+ (selective hV1a receptor agonist; EC50 hOT/hV1a ratio not determined due to very low agonist efficacy (<30% compared to AVP) at the hOT receptor)
CC[C@H](C)[C@@H]1NC(=O)[C@H](Cc2ccccc2)NC(=O)[C@@H](N)CSSC[C@@H](C(=O)N2CCC[C@H]2C(=O)N[C@@H](CCNC(C)C)C(=O)NCC(N)=O)NC(=O)[C@H](CC(N)=O)NC(=O)[C@H](CCCC(N)=O)NC1=O [Compound 22] (H-CFI[Aad](NH2)NCP[Dab(iPr)]G-NH2; disulfide 1-6; N-terminus and C-terminus assumed)	18.1	–	–	–	+ (selective hV1a receptor agonist; EC50 hOT/hV1a ratio not determined due to very low agonist efficacy (<30% compared to AVP) at the hOT receptor)

Second part, led by results:

EC50 (hV1a receptor; [2]) [nM]	Structure (SMILES)	EC50 (hV1a receptor) [nM]	selectivity hOT/hV1a [1]	selectivity hOT/hV1a ([1]; EC50 ratio)	selectivity hOT/hV1a [1, 3]
11.9	CC[C@H](C)[C@@H]1NC(=O)[C@H](Cc2ccccc2)NC(=O)[C@@H](N)CSSC[C@@H](C(=O)N2CCC[C@H]2C(=O)N[C@@H](CCCN)C(=O)NCC(N)=O)NC(=O)[C@H](CC(N)=O)NC(=O)[C@H](CCC(=O)NO)NC1=O [Compound 16] (H-CFIE(NHOH)NCP[Orn]G-NH2; disulfide 1-6; N-terminus and C-terminus assumed)	–	–	–	+ (selective hV1a receptor agonist; EC50 hOT/hV1a ratio not determined due to very low agonist efficacy (<30% compared to AVP) at the hOT receptor)
7.97	CC[C@H](C)[C@@H]1NC(=O)[C@H](Cc2ccccc2)NC(=O)[C@@H](N)CSSC[C@@H](C(=O)N2CCC[C@H]2C(=O)N[C@@H](CCCN)C(=O)NCC(N)=O)NC(=O)[C@H](CC(N)=O)NC(=O)[C@H](CC(=O)NCCO)NC1=O [Compound 23] (H-CFID(NHCH2CH2OH)NCP[Orn]G-NH2; disulfide 1-6)	–	–	–	+ (selective hV1a receptor agonist; EC50 hOT/hV1a ratio not determined due to very low agonist efficacy (<30% compared to AVP) at the hOT receptor)
4.09	CC[C@H](C)[C@@H]1NC(=O)[C@H](Cc2ccccc2)NC(=O)[C@@H](N)CSSC[C@@H](C(=O)N2CCC[C@H]2C(=O)N[C@@H](CCCN)C(=O)NCC(N)=O)NC(=O)[C@H](CC(N)=O)NC(=O)[C@H](CC(=O)NO)NC1=O [Compound 24] (H-CFID(NHOH)NCP[Orn]G-NH2; disulfide 1-6; N-terminus and C-terminus assumed)	–	–	–	+ (selective hV1a receptor agonist; EC50 hOT/hV1a ratio not determined due to very low agonist efficacy (<30% compared to AVP) at the hOT receptor)
16.2	CC[C@H](C)[C@@H]1NC(=O)[C@H](Cc2ccccc2)NC(=O)[C@@H](N)CSSC[C@@H](C(=O)N2CCC[C@H]2C(=O)N[C@@H](CCCN)C(=O)NCC(N)=O)NC(=O)[C@H](CC(N)=O)NC(=O)[C@H](CC(=O)NC(CO)CO)NC1=O [Compound 27] (H-CFID(NHCH(CH2OH)2)NCP[Orn]G-NH2; disulfide 1-6; N-terminus and C-terminus assumed)	–	–	–	+ (selective hV1a receptor agonist; EC50 hOT/hV1a ratio not determined due to very low agonist efficacy (<30% compared to AVP) at the hOT receptor)
4.77	CC[C@H](C)[C@@H]1NC(=O)[C@H](Cc2ccccc2)NC(=O)[C@@H](N)CSSC[C@@H](C(=O)N2CCC[C@H]2C(=O)N[C@@H](CCCN)C(=O)NCC(N)=O)NC(=O)[C@H](CC(N)=O)NC(=O)[C@H](CC(=O)NCCOCCO)NC1=O [Compound 29] (H-CFID(X4)NCP[Orn]G-NH2; disulfide 1-6; N-terminus and C-terminus assumed)	–	–	–	+ (selective hV1a receptor agonist; EC50 hOT/hV1a ratio not determined due to very low agonist efficacy (<30% compared to AVP) at the hOT receptor)
3.91	CC[C@H](C)[C@@H]1NC(=O)[C@H](Cc2ccccc2)NC(=O)[C@@H](N)CSSC[C@@H](C(=O)N2CCC[C@H]2C(=O)N[C@@H](CCN)C(=O)NCC(N)=O)NC(=O)[C@H](CC(N)=O)NC(=O)[C@H](CC(=O)NC)NC1=O [Compound 31] (H-CFID(NHMe)NCP[Dab]G-NH2; disulfide 1-6; N-terminus and C-terminus assumed)	–	–	–	+ (selective hV1a receptor agonist; EC50 hOT/hV1a ratio not determined due to very low agonist efficacy (<30% compared to AVP) at the hOT receptor)
